# Read-outs that look alike come from different tables or passages of the source.
# Assays:
# [1] = system: GABAAR-mediated sIPSCs in hippocampal neurons; assay: phasic inhibition: sIPSCs in cultured hippocampal neurons in the presence of CGP55845 (1 μM); assay type: cell-based, rat; conditions: mean ± SEM
# Experimental: (§1) Briefly, single cells derived from dissected hippocampi were seeded onto glass coverslips coated with poly-D-lysine in a plating medium containing minimum essential media with 5% v/v heat-inactivated FCS, 5% v/v heat-inactivated horse serum, penicillin-G/streptomycin (100 U/100 μg/ml), 2 mM L-glutamine, and 20 mM glucose. Two hr after plating the media was changed to a Neurobasal-A based maintenance media supplemented with 1% v/v B-27, penicillin-G/streptomycin (100 U/100 μg/ml), 0.5% v/v Glutamax and 35 mM glucose.
# (§2) Spontaneous inhibitory postsynaptic currents (sIPSCs) were recorded from cultured hippocampal neurons at 12–17 days in vitro (DIV). […] For recording K^+ currents in GIRK cells and neurons, the bath solution was switched to a high K^+ solution containing 25 mM KCl and reduced NaCl (120 mM), to shift the equilibrium potential for K^+ from approximately −90 to −47 mV, thus reversing the direction of K^+ current flux to net inward. GABABR-activated K^+ currents in cultured neurons were recorded in the additional presence of 2 mM kynurenic acid and 20 μM picrotoxin.
# (§3) Borosilicate glass electrodes (3–5 MΩ) were filled with a K^+-based internal solution for recording GIRK currents containing (mM): 120 KCl, 2 MgCl2, 11 EGTA, 30 KOH, 10 HEPES, 1 CaCl2, 1 GTP, 2 ATP, 14 creatine phosphate, pH 7.0. GABAAR currents and sIPSCs were recorded with a Cs-based internal solution containing (mM): 120 CsCl, 1 MgCl2, 11 EGTA, 30 KOH, 10 HEPES, 1 CaCl2, and 2 K2ATP; pH 7.2. […] Cells were held at −60 mV (sIPSCs) or −60/−70 mV (K^+ currents). Voltage clamp recordings were undertaken after optimising series resistance (Rs, <10 MΩ) and compensating for the whole-cell membrane capacitance. Membrane currents were filtered at 5 kHz (−3 dB, 6th pole Bessel, 36 dB/octave) and stored for analysis with Clampex 10.
# sIPSCs were recorded at room temperature (20–23 °C) and detected using WinEDR and WinWCP (Strathclyde Electrophysiology Software UK), and frequency was calculated for 60 s recording epochs. For sIPSC amplitudes, several hundred events were recorded per condition and analysed as an average amplitude per cell.
# For kinetic analysis, individual uncontaminated sIPSCs were isolated and the average 10–90% rise time and exponential decay times were measured from the mean sIPSC waveform. Weighted decay times are reported encompassing mono- and bi-exponentially decaying events according to the equation:τw = (A1 *τ1 + A2 *τ2) / (A1 + A2)where τ1 and τ2 are exponential decay time constants, and A1 and A2 are the relative amplitude contributions of τ1 and τ2, respectively.
# [2] = biological target: T1, α1β2γ2L GABAAR (Mus musculus, UniProt P22723+P62812+P63137); assay: whole-cell currents of recombinant GABAA receptors in HEK-293 cells (α1β2γ2L); assay type: cell-based, murine
# T1 construct: expressed in transfected cells; host or cells: HEK-293T
# T1 sequence (P62812 28-455): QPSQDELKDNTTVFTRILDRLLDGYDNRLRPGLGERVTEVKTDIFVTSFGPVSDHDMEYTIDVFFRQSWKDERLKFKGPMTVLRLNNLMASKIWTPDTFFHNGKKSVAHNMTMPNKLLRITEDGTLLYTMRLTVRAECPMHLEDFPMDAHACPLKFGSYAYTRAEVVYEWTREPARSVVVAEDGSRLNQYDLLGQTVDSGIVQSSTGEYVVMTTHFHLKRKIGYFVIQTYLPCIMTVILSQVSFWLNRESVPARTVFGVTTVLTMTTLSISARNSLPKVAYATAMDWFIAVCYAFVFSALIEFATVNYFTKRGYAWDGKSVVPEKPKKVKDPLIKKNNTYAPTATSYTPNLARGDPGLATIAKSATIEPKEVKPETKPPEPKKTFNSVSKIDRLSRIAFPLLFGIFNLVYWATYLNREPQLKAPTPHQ
# T1 sequence (P63137 25-512 limits assumed): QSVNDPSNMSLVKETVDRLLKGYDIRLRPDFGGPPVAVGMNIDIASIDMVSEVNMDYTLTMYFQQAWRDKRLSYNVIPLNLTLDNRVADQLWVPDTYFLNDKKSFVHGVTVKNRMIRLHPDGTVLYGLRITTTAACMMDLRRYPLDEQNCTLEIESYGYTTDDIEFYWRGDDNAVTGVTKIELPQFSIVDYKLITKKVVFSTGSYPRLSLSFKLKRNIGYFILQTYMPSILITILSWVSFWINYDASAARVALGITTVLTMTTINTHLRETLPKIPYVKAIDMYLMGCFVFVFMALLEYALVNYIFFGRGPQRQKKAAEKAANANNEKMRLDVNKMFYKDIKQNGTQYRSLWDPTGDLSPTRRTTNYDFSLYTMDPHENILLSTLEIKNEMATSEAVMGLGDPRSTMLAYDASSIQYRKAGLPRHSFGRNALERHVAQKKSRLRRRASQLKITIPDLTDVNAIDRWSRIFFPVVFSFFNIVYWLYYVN
# T1 sequence (P22723 39-474): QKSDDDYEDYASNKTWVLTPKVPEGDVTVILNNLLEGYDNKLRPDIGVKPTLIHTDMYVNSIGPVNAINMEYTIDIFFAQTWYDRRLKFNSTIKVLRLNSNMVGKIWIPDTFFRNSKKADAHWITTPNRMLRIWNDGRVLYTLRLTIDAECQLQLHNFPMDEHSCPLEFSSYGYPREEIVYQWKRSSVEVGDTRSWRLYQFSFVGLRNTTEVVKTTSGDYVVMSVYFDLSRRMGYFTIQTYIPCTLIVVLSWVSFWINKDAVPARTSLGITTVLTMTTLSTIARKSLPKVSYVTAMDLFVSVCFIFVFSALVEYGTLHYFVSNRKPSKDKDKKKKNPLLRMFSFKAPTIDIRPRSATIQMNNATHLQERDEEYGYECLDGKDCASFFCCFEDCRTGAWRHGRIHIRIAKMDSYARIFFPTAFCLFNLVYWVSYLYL
# Experimental: (§4) CGP55845, and other drugs, were obtained from Merck (Sigma-Aldrich) unless otherwise stated.
# (§5) All cell culture reagents were acquired from ThermoFisher unless otherwise stated. […] These cells are referred to as GIRK cells throughout the text and were transiently transfected with cDNAs for eGFP, GABAB R1a and R2 in a 1:1:5 ratio applied 1–2 h after cell plating.
# as §2, §3
# (§6) Concentration-response curves were generated by measuring the current (I) for each ligand concentration and normalising to the maximal current response (Imax).
# We explored the ability of CGP7930 to modulate different recombinant GABAARs expressed in HEK-293 cells to avoid confounds arising from heterogeneous receptor subtypes in neurons.
# [3] = biological target: T2, neuronal GABABRs (Rattus norvegicus, UniProt O88871+Q9Z0U4); assay: baclofen-activated GIRK currents in hippocampal cultures, high external K+, whole-cell voltage clamp; assay type: cell-based; conditions: read-out: EC50 for CGP7930 potentiation of baclofen response
# T2 construct: endogenous in cells; host or cells: cultured rat (E18 Sprague-Dawley) hippocampal neurons, 12-17 DIV
# T2 sequence (Q9Z0U4 17-960 limits assumed): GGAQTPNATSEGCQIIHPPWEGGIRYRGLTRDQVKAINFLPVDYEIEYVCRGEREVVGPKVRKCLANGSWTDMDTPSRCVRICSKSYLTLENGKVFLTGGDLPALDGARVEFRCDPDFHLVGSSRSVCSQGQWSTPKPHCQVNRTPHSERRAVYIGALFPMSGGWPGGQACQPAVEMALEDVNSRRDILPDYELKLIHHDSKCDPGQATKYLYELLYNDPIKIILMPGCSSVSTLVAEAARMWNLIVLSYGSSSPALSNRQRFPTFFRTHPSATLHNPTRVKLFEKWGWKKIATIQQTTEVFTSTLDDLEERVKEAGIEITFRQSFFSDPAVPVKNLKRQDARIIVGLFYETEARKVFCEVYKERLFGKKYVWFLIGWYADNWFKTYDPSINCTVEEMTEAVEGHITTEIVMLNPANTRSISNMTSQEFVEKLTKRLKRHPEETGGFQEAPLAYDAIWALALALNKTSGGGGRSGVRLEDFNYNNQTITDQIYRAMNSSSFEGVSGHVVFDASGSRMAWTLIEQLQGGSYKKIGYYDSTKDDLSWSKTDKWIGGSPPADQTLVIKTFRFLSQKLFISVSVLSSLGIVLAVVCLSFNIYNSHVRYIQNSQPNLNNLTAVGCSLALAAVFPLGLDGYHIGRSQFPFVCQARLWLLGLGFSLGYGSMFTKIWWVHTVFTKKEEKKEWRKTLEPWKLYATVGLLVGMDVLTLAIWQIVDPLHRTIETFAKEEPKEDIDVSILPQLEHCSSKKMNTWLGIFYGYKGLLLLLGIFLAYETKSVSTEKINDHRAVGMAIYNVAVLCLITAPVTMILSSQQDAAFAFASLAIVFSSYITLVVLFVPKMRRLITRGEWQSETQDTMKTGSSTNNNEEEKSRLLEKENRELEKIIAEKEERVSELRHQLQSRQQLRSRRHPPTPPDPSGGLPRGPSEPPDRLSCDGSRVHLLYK
# T2 sequence (O88871 41-940): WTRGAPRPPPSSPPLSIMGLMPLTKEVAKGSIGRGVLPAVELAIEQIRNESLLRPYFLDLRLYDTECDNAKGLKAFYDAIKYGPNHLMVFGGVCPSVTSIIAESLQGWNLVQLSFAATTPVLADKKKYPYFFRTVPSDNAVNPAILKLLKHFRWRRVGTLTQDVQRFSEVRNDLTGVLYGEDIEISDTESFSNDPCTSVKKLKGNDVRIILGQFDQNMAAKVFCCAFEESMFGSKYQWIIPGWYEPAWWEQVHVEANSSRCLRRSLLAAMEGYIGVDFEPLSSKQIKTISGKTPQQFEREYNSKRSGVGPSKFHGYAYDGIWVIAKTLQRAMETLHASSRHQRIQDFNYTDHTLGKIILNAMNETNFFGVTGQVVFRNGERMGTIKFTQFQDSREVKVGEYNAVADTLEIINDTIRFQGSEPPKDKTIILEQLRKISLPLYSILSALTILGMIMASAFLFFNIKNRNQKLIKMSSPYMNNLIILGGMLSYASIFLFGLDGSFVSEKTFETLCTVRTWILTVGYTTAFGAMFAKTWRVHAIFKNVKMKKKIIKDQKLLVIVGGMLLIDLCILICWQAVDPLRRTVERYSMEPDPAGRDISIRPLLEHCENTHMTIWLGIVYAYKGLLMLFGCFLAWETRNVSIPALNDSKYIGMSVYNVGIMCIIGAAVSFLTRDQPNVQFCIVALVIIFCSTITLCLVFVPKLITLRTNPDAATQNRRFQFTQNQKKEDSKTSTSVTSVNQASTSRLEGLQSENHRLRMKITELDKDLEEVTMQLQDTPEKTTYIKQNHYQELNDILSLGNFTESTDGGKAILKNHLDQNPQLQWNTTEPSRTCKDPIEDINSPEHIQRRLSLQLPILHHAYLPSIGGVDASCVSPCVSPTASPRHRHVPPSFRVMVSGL
# Experimental: as §1
# (§7) Spontaneous inhibitory postsynaptic currents (sIPSCs) were recorded from cultured hippocampal neurons at 12–17 days in vitro (DIV). […] GABABR-activated K^+ currents in cultured neurons were recorded in the additional presence of 2 mM kynurenic acid and 20 μM picrotoxin.
# as §3, with “Membrane currents were filtered at 5 kHz (−3 dB, 6th pole Bessel, 36 dB/octave) and stored for analysis with Clampex 10.” left out
# [4] = system: GABAARs in hippocampal neurons; assay: slow inward current directly activated by CGP7930 in hippocampal neurons in high K+ external solution and its block by GABAAR antagonists; assay type: cell-based, rat; conditions: hippocampal neurons, high external K+
# Experimental: as §2
# CGP7930 modulation at neuronal GABABRs was also characterised using baclofen-activated GIRK currents in hippocampal cultures similarly bathed in a high external K^+ concentration.
# [5] = biological target: T3, GABAB receptors (R1a and R2) (Mus musculus, UniProt Q80T41+Q9WV18); assay: GABA-activated K+ currents in GIRK cells (HEK cells stably expressing Kir3.1/3.2, transfected with GABAB R1a and R2), whole-cell patch clamp; assay type: cell-based, murine
# T3 construct: expressed in transfected cells; host or cells: HEK-293 cells stably expressing Kir3.1/3.2 (GIRK cells)
# T3 sequence (Q9WV18 20-960): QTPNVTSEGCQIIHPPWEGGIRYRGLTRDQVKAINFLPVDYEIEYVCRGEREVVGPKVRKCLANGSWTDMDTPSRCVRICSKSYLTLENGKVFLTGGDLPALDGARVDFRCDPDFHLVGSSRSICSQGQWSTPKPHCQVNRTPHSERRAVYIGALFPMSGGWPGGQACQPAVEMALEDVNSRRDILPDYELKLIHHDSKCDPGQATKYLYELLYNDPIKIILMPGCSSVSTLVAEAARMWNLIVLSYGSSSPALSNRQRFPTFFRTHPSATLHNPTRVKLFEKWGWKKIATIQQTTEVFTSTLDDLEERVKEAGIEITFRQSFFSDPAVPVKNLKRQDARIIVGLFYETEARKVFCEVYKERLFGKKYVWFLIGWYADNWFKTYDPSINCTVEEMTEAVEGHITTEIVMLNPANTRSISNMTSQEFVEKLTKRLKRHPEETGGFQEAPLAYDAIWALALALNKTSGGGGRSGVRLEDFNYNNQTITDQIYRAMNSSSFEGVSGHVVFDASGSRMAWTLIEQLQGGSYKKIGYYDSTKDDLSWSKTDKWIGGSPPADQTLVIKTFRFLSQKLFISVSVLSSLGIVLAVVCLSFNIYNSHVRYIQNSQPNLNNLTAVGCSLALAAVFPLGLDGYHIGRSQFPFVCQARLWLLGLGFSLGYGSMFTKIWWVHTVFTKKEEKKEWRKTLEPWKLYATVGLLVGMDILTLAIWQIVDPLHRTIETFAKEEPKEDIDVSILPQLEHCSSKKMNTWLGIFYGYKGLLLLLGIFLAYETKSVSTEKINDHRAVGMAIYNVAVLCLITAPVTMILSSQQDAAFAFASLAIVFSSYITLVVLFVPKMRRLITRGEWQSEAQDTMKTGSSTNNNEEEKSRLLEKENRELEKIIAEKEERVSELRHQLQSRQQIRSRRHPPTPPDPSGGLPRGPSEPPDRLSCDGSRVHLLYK
# T3 sequence (Q80T41 41-940): as the sequence (O88871 41-940) above, with T2A, F297Y, K356R counted along it
# Experimental: as §4, §5, §7, §3, §6
# These cells were bathed in high external K^+ concentration Krebs to reverse the direction of net K^+ current flow.
# [6] = system: GABAAR-mediated tonic inhibition in hippocampal neurons; assay: tonic inhibition: baseline holding current and RMS noise in cultured hippocampal neurons; assay type: cell-based, rat
# Experimental: as §1, §2, §3
# For tonic inhibition, to determine the average holding currents, a 30 s continuous holding current recording was sampled every 1 s, discarding epochs that coincided with sIPSCs. Any effect of CGP7930 or bicuculline on the holding current was defined by subtracting the average holding currents in control and during drug application. The baseline root-mean-square current variance (RMS) was calculated before and during drug treatment. This was estimated from a continuous (20 s) current recording, sampled every 100 ms. The median current was calculated every 5 s and values more than twice the standard deviation from the median (usually due to IPSCs) were eliminated. All drugs were applied using a U-tube rapid drug application system, or more slowly via bath perfusion.
# We assessed the effect of CGP7930 on tonic inhibition in hippocampal cultured neurons.
structure (smiles),measurement,setting,value
"CC(C)(CO)Cc1cc(C(C)(C)C)c(O)c(C(C)(C)C)c1 [CGP7930, 3-(3′,5′-Di-tert-butyl-4′-hydroxy) phenyl-2,2-dimethylpropanol]",sIPSC Amplitude,[1]; 100 nM,−70.0 ± 8.9 (7) pA
same,sIPSC Decay τ (weighted decay time),[1]; 100 nM,61.9 ± 7.2 (7) ms
same,sIPSC Frequency,[1]; 100 nM,3.28 ± 0.62 (8) Hz
same,sIPSC Rise time (10–90%),[1]; 100 nM,2.5 ± 0.20 (9) ms
same,sIPSC Amplitude,[1]; 500 nM,−73.9 ± 8.8 (7) pA
same,sIPSC Decay τ (weighted decay time),[1]; 500 nM,100.8 ± 11 (7) ms
same,sIPSC Frequency,[1]; 500 nM,1.53 ± 0.32 (8) Hz
same,sIPSC Rise time (10–90%),[1]; 500 nM,3.2 ± 0.39 (9) ms
same,sIPSC Amplitude,[1]; 1 μM,−124.6 ± 37.7 (7) pA
same,sIPSC Decay τ (weighted decay time),[1]; 1 μM,205.5 ± 117 (7) ms
same,sIPSC Frequency,[1]; 1 μM,0.38 ± 0.07 (8) Hz
same,sIPSC Rise time (10–90%),[1]; 1 μM,16.1 ± 5.2 (9) ms
same,IC50,[2],6.6 ± 2.3 µM
same,EC50,"[2]; EC50 of GABA EC20 modulation curve, α1β2γ2L, ∼EC20 GABA, direct effects subtracted, n = 5",1.7 ± 1.3 µM
same,EC50,"[2]; α1β2γ2L (αβγ), read-out: EC50 for direct activation by CGP7930 alone",9.3 ± 0.7 µM
same,threshold for direct activation,"[2]; α1β2γ2L, CGP7930 alone",1 to 3 µM
same,concentration at which clear direct activation became evident,"[2]; α1β2γ2L, pre-application",3 to 10 µM
same,threshold for potentiation of the GABA current,"[2]; α1β2γ2L, pre-application",1 µM
same,EC50,[3],0.9 ± 0.6 µM
same,concentration at which pre-application caused a slow inward current,[4],> 3 µM
same,direct receptor activation of GABABRs,"[5]; GIRK cells, CGP7930 pre-applied alone",no indication of direct receptor activation
same,"potentiation reached, of the maximum GABA current activation of GABABRs","[5]; GIRK cells, ∼EC20 GABA",~30%
same,concentration at which GABABR signalling is inhibited,[5]; highlights statement,> 3 µM
same,EC50,[5]; read-out: EC50 for CGP7930 modulating EC20 GABAB receptor activated currents,11.1 ± 7 µM
same,IC50,[5]; read-out: IC50 for CGP7930 modulating EC20 GABAB receptor activated currents,10.5 ± 2 µM
same,Membrane current RMS noise,[6]; 100 nM,6.4 ± 0.4 (9) pA
same,Membrane current RMS noise,[6]; 500 nM,8.6 ± 0.9 (9) pA
same,Tonic currents (change in baseline holding current),[6]; 500 nM to 1 μM,−441.6 ± 124.7 (9) pA
same,Membrane current RMS noise,[6]; 1 μM,12.7 ± 1.7 (9) pA
same,Membrane current RMS noise,[6]; 1 μM + Bic (50 μM bicuculline),5.7 ± 0.5 (9) pA
same,Tonic currents (change in baseline holding current),[6]; 1 μM CGP7930 to 50 μM bicuculline (Bic),372.0 ± 88.5 (9) pA
same,Tonic currents (change in baseline holding current),[6]; 100–500 nM,−115.6 ± 37.8 (9) pA
same,Tonic currents (change in baseline holding current),[6]; Control to 100 nM,−21.41 ± 5.4 (9) pA

# Source: PMC10951960, “CGP7930 - An allosteric modulator of GABABRs, GABAARs and inwardly-rectifying potassium channels” (Neuropharmacology, 2023)
